{
  "source": "patent US20210155644A1",
  "about": "“CYCLOPENTENYL PURINE DERIVATIVE OR SALT THEREOF” (Fujifilm Corporation, priority 2018, published 2021)",
  "data": [
    {"tested_on": "adenovirus type 6 (ADV6)", "experiment": "Evaluation of anti-adenovirus activity: CRL-11516 cells infected with ADV6, anti-hexon staining, count of stained cells", "type": "cell-based", "settings": "CRL-11516 cells infected with ADV6, 48 hours culture, concentration reducing dark brown-stained cells by 50%; read-out: Anti-AdV activity EC50", "experimental": "(§1) A system in which CRL-11516 cells (available from ATCC) were infected with adenovirus type 6 (hereinafter, referred to as ADV6) was constructed, and a test for evaluating the anti-adenovirus activity of the compound according to the embodiment of the present invention and the compound of Comparative Example was carried out using the system. The test for evaluating the anti-adenovirus activity was carried out according to the method described below.\n(§2) CRL-11516 cells were added to a 96-well plate at a cell density of 1×10^4 cells/well and cultured at 37° C. for 24 hours. After the culture was completed, the cell culture liquid was removed, and a serial dilution (100 μL) of the compound according to the embodiment of the present invention or the compound of Comparative Example was added. ADV6 (corresponding to 50TCID50) was added thereto, followed by culturing at 37° C. for 48 hours.\n(§3) After the culture was completed, the infected cells were stained using Adeno-X Rapid Titer Kit (manufactured by Takara Bio Inc.). 100% methanol was added thereto and the cells were fixed at −20° C. for 10 minutes. The plate was washed three times with phosphate buffered saline (hereinafter, referred to as PBS) and then Mouse Anti-Hexon Antibody was added thereto, followed by incubation at 37° C. for 1 hour. After the incubation was completed, the plate was washed three times with PBS, and Rat Anti-Mouse Antibody was added thereto, followed by incubation at 37° C. for 1 hour. After the incubation was completed, a mixed staining solution of Stable Peroxidase Buffer:DAB Substrate=10:1 was added thereto, followed by incubation at room temperature for 10 minutes for staining of the cells.\n(§4) The number of dark brown-stained cells was counted under a microscope, and the concentration of the test drug that reduces the dark brown-stained cells by 50% was defined as EC50. EC50 values were calculated for the triplicate test results, and a mean value and a standard deviation thereof were determined.", "units": {"EC50": "nM"}, "values": [
      {"smiles": "COC(=O)[C@H](C)NP(=O)(OC[C@@H]1C=C[C@H](n2cnc3c(OC)nc(N)nc32)C1)Oc1ccccc1", "note": "(stereo partly drawn) [Example 2-2-16, Methyl ((((1S,4R)-4-(2-amino-6-methoxy-9H-purin-9-yl)cyclopent-2-en-1-yl)methoxy) (phenoxy)phosphoryl)-L-alaninate]", "EC50": "10 to 100"},
      {"smiles": "CNc1nc(N)nc2c1ncn2[C@H]1C=C[C@@H](CO[P@](=O)(N[C@@H](C)C(=O)OC(C)C)Oc2ccccc2)C1", "note": "[Example 2-2-29]", "EC50": "10 to 100"},
      {"smiles": "COC(=O)[C@H](C)NP(=O)(OC[C@@H]1C=C[C@H](n2cnc3c(OC)nc(N)nc32)C1)Oc1ccccc1", "note": "(stereo partly drawn) [Example 4-2-2, methyl ((((1 S,4R)-4-(2-amino-6-methoxy-9H-purin-9-yl)cyclopent-2-en-1-yl)methoxy)(phenoxy)phosphoryl)-L-alaninate]", "EC50": "10 to 100"},
      {"smiles": "CC(C)OC(=O)[C@H](C)NP(=O)(OC[C@@H]1C=C[C@H](n2cnc3c(Cl)nc(N)nc32)C1)Oc1ccccc1", "note": "(stereo partly drawn) [Example 4-3-1, Isopropyl ((((1 S,4R)-4-(2-amino-6-chloro-9H-purin-9-yl)cyclopent-2-en-1-yl)methoxy)(phenoxy)phosphoryl)-L-alaninate]", "EC50": "10 to 100"},
      {"smiles": "CC(C)OC(=O)[C@H](C)NP(=O)(OC[C@@H]1C=C[C@H](n2cnc3c(Cl)nc(N)nc32)C1)Oc1ccccc1", "note": "(stereo partly drawn) [Example 4-3-2, Isopropyl ((((1 S,4R)-4-(2-amino-6-chloro-9H-purin-9-yl)cyclopent-2-en-1-yl)methoxy)(phenoxy)phosphoryl)-L-alaninate]", "EC50": "100 to 1000"},
      {"smiles": "COc1nc(N)nc2c1ncn2[C@H]1C=C[C@@H](COP(=O)(N[C@@H](C)C(=O)OC(C)C)Oc2ccccc2)C1", "note": "(stereo partly drawn) [Example 4-4-1, Isopropyl ((((1 S,4R)-4-(2-amino-6-methoxy-9H-purin-9-yl)cyclopent-2-en-1-yl)methoxy)(phenoxy)phosphoryl)-L-alaninate]", "EC50": "10 to 100"},
      {"smiles": "COc1nc(N)nc2c1ncn2[C@H]1C=C[C@@H](COP(=O)(N[C@@H](C)C(=O)OC(C)C)Oc2ccccc2)C1", "note": "(stereo partly drawn) [Example 4-4-2, Isopropyl ((((1 S,4R)-4-(2-amino-6-methoxy-9H-purin-9-yl)cyclopent-2-en-1-yl)methoxy)(phenoxy)phosphoryl)-L-alaninate]", "EC50": "100 to 1000"},
      {"smiles": "COC(=O)[C@H](C)NP(=O)(OC[C@@H]1C=C[C@H](n2cnc3c(Cl)nc(N)nc32)C1)Oc1ccc(Cl)cc1", "note": "(stereo partly drawn) [Example 4-5-2, methyl ((((1 S,4R)-4-(2-amino-6-chloro-9H-purin-9-yl)cyclopent-2-en-1-yl)methoxy)(4-chlorophenoxy)phosphoryl)-L-alaninate]", "EC50": "10 to 100"},
      {"smiles": "COC(=O)[C@H](C)NP(=O)(OCCSC(=O)C(C)(C)C)OC[C@@H]1C=C[C@H](n2cnc3c(OC)nc(N)nc32)C1", "note": "(stereo partly drawn) [Example 4-6-1, ((((1S,4R)-4-(2-amino-6-methoxy-9H-purin-9-yl)cyclopent-2-en-1-yl)methoxy)(2-(pivaloylthio)ethoxy)phosphoryl)-L-alaninate]", "EC50": "< 10"}
    ]},
    {"tested_on": "adenovirus type 6 (ADV6)", "experiment": "Evaluation of anti-adenovirus activity: CRL-11516 cells infected with ADV6, anti-hexon staining, count of stained cells", "type": "cell-based", "settings": "Human mastadenovirus C, 48 h, CRL-11516 cells infected with ADV6, 48 hours culture, concentration reducing dark brown-stained cells by 50%; read-out: Anti-AdV activity EC50", "experimental": "as §1, §2, §3, §4", "units": {"EC50": "nM"}, "values": [
      {"smiles": "CCOc1nc(N)nc2c1ncn2[C@H]1C=C[C@@H](CO[P@](=O)(N[C@@H](C)C(=O)OC(C)C)Oc2ccccc2)C1", "note": "[Example 2-2-17, isopropyl ((R)-(((1S,4R)-4-(2-amino-6-ethoxy-9H-purin-9-yl)cyclopent-2-en-1-yl)methoxy)(phenoxy)phosphoryl)-L-alaninate]", "EC50": "< 10"},
      {"smiles": "CCOc1nc(N)nc2c1ncn2[C@H]1C=C[C@@H](CO[P@@](=O)(N[C@@H](C)C(=O)OC(C)C)Oc2ccccc2)C1", "note": "[Example 2-2-18, Isopropyl ((S)-(((1S,4R)-4-(2-amino-6-ethoxy-9H-purin-9-yl)cyclopent-2-en-1-yl)methoxy) (phenoxy)phosphoryl)-L-alaninate]", "EC50": "100 to 1000"},
      {"smiles": "CC(C)OC(=O)[C@H](C)N[P@@](=O)(OC[C@@H]1C=C[C@H](n2cnc3c(OC(C)C)nc(N)nc32)C1)Oc1ccccc1", "note": "[Example 2-2-19, isopropyl ((R)-(((1S,4R)-4-(2-amino-6-isopropoxy-9H-purin-9-yl)cyclopent-2-en-1-yl)methoxy)(phenoxy)phosphoryl)-L-alaninate]", "EC50": "10 to 100"},
      {"smiles": "CC(C)OC(=O)[C@H](C)N[P@](=O)(OC[C@@H]1C=C[C@H](n2cnc3c(OC(C)C)nc(N)nc32)C1)Oc1ccccc1", "note": "[Example 2-2-20, Isopropyl ((S)-(((1S,4R)-4-(2-amino-6-isopropoxy-9H-purin-9-yl)cyclopent-2-en-1-yl)methoxy) (phenoxy)phosphoryl)-L-alaninate]", "EC50": "100 to 1000"},
      {"smiles": "COCCOc1nc(N)nc2c1ncn2[C@H]1C=C[C@@H](CO[P@](=O)(N[C@@H](C)C(=O)OC(C)C)Oc2ccccc2)C1", "note": "[Example 2-2-21, isopropyl ((R)-(((1S,4R)-4-(2-amino-6-(2-methoxyethoxy)-9H-purin-9-yl)cyclopent-2-en-1-yl)methoxy) (phenoxy)phosphoryl)-L-alaninate]", "EC50": "10 to 100"},
      {"smiles": "CC(C)OC(=O)[C@H](C)N[P@@](=O)(OC[C@@H]1C=C[C@H](n2cnc3c(N(C)C)nc(N)nc32)C1)Oc1ccccc1", "note": "[Example 2-2-25, isopropyl ((R)-(((1S,4R)-4-(2-amino-6-(dimethylamino)-9H-purin-9-yl)cyclopent-2-en-1-yl)methoxy)(phenoxy)phosphoryl)-L-alaninate]", "EC50": "10 to 100"},
      {"smiles": "CC(C)OC(=O)[C@H](C)N[P@](=O)(OC[C@@H]1C=C[C@H](n2cnc3c(N(C)C)nc(N)nc32)C1)Oc1ccccc1", "note": "[Example 2-2-26, Isopropyl ((S)-(((1S,4R)-4-(2-amino-6-(dimethylamino)-9H-purin-9-yl)cyclopent-2-en-1-yl)methoxy) (phenoxy)phosphoryl)-L-alaninate]", "EC50": "100 to 1000"},
      {"smiles": "CC(C)OC(=O)[C@H](C)N[P@@](=O)(OC[C@@H]1C=C[C@H](n2cnc3c(OC4CCC4)nc(N)nc32)C1)Oc1ccccc1", "note": "[Example 2-2-35, isopropyl ((R)-(((1S,4R)-4-(2-amino-6-cyclobutoxy-9H-purin-9-yl)cyclopent-2-en-1-yl)methoxy)(phenoxy)phosphoryl)-L-alaninate]", "EC50": "10 to 100"},
      {"smiles": "CC(C)OC(=O)[C@H](C)N[P@](=O)(OC[C@@H]1C=C[C@H](n2cnc3c(OC4CCC4)nc(N)nc32)C1)Oc1ccccc1", "note": "[Example 2-2-36, Isopropyl ((S)-(((1S,4R)-4-(2-amino-6-cyclobutoxy-9H-purin-9-yl)cyclopent-2-en-1-yl)methoxy)(phenoxy)phosphoryl)-L-alaninate]", "EC50": "100 to 1000"},
      {"smiles": "CC(C)OC(=O)[C@H](C)N[P@@](=O)(OC[C@@H]1C=C[C@H](n2cnc3c(N4CCC4)nc(N)nc32)C1)Oc1ccccc1", "note": "[Example 2-2-37, isopropyl ((R)-(((1S,4R)-4-(2-amino-6-(azetidin-1-yl)-9H-purin-9-yl)cyclopent-2-en-1-yl)methoxy)(phenoxy)phosphoryl)-L-alaninate]", "EC50": "10 to 100"},
      {"smiles": "COC(=O)[C@H](C)NP(=O)(OC[C@@H]1C=C[C@H](n2cnc3c(OC)nc(N)nc32)C1)Oc1ccccc1", "note": "(stereo partly drawn) [Example 4-2-1, methyl ((((1 S,4R)-4-(2-amino-6-methoxy-9H-purin-9-yl)cyclopent-2-en-1-yl)methoxy)(phenoxy)phosphoryl)-L-alaninate]", "EC50": "10 to 100"},
      {"smiles": "COC(=O)[C@H](C)NP(=O)(OC[C@@H]1C=C[C@H](n2cnc3c(Cl)nc(N)nc32)C1)Oc1ccc(Cl)cc1", "note": "(stereo partly drawn) [Example 4-5-1, methyl ((((1 S,4R)-4-(2-amino-6-chloro-9H-purin-9-yl)cyclopent-2-en-1-yl)methoxy)(4-chlorophenoxy)phosphoryl)-L-alaninate]", "EC50": "< 10"}
    ]}
  ]
}
